Test results taken from patent US12410208B2, “(2-acetamidyl)thio-beta-D-galactopyranoside derivatives” (Idorsia Pharmaceuticals Ltd, priority 2020, dated 2025).
Read-outs that look alike come from different tables or passages of the source.

Tests used:
human Gal-1 (hGal-1) = human Gal-1 (hGal-1) (Homo sapiens, UniProt P09382); assay: Competitive binding assay: biotinylated hGal-1 binding to microplate-adsorbed asialofetuin (ASF), spectrophotometric; conditions: hGal-1 binding to asialofetuin; Table 15; R and S epimers of selected Examples also listed; read-out: IC50 (Galectin-1 inhibition)
human Gal-1 (hGal-1), sequence (P09382 whole entry): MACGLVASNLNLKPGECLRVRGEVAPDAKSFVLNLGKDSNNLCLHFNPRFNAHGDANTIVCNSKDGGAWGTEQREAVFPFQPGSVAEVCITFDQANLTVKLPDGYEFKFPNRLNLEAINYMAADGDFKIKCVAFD
In short: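 Biotinylated hGal-1 (300-1000 ng/mL) incubated with compound on asialofetuin-coated plates 3 hours at 4 °C, washed, then streptavidin-peroxidase (80 ng/mL) 1 hour at 4 °C. ABTS substrate read spectrophotometrically; IC50 reported as mean of several measurements.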

[1] = molecular target: biotinylated human Gal-3 (hGal-3) (Homo sapiens, UniProt P17931); assay: Competitive binding assay: biotinylated hGal-3 binding to microplate-adsorbed asialofetuin (ASF), spectrophotometric
biotinylated human Gal-3 (hGal-3), sequence (P17931 whole entry): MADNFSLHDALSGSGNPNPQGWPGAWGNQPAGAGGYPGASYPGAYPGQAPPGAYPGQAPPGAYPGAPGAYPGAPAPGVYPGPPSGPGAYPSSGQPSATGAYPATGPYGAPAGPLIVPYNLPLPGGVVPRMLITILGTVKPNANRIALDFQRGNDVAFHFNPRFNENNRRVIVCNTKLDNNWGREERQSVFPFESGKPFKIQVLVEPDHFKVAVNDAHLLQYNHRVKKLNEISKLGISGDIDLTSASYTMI
In short: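 Competitive binding of biotinylated hGal-3 to plate-adsorbed asialofetuin was measured with serially diluted compounds over 3 h at 4° C. Bound protein was detected with streptavidin-peroxidase and ABTS substrate by absorbance. IC50 values are means of several measurements.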

[2] = Table 8, hGal-3, read-out: IC50 (Gal-3 inhibition)
[3] = Gal-3 inhibition, Table 1 (Reference Examples), read-out: IC50
[4] = Gal-3 inhibition, Table 7, read-out: IC50

IC50 (human Gal-1 (hGal-1)) [nM] | IC50 [1, 2] [nM] | IC50 [1, 3] [nM] | IC50 [1, 4] [nM] | SMILES
4430 | 2650 | – | – | CCN(C)C(=O)[C@H](S[C@@H]1O[C@H](CO)[C@H](O)[C@H](n2cc(-c3cc(F)c(F)c(F)c3)nn2)[C@H]1O)C1(O)CCN(C(=O)NC2CC2)CC1 [Example 2.49.203R., (R)-N-Cyclopropyl-4-(1-(((2S,3R,4S,5R,6R)-3,5-dihydroxy-6-(hydroxymethyl)-4-(4-(3,4,5-trifluorophenyl)-1H-1,2,3-triazol-1-yl)tetrahydro-2H-pyran-2-yl)thio)-2-(ethyl(methyl)amino)-2-oxoethyl)-4-hydroxypiperidine-1-carboxamide]
60 | 40 | – | – | CCN(C)C(=O)[C@@H](S[C@@H]1O[C@H](CO)[C@H](O)[C@H](n2cc(-c3cc(F)c(F)c(F)c3)nn2)[C@H]1O)C1(O)CCN(C(=O)NC2CC2)CC1 [Example 2.49.203S., (S)-N-Cyclopropyl-4-(1-(((2S,3R,4S,5R,6R)-3,5-dihydroxy-6-(hydroxymethyl)-4-(4-(3,4,5-trifluorophenyl)-1H-1,2,3-triazol-1-yl)tetrahydro-2H-pyran-2-yl)thio)-2-(ethyl(methyl)amino)-2-oxoethyl)-4-hydroxypiperidine-1-carboxamide]
80 | 1740 | – | – | CCN(C)C(=O)[C@H](S[C@@H]1O[C@H](CO)[C@H](O)[C@H](n2cc(-c3cc(F)c(F)c(F)c3)nn2)[C@H]1OC)C1(O)CCN(C(=O)NC2CC2)CC1 [Example 2.49.226R.I., N-Cyclopropyl-4-((R)-2-(ethyl(methyl)amino)-1-(((2S,3R,4S,5R,6R)-5-hydroxy-6-(hydroxymethyl)-3-methoxy-4-(4-(3,4,5-trifluorophenyl)-1H-1,2,3-triazol-1-yl)tetrahydro-2H-pyran-2-yl)thio)-2-oxoethyl)-4-hydroxypiperidine-1-carboxamide]
1700 | 60 | – | – | CCN(C)C(=O)[C@@H](S[C@@H]1O[C@H](CO)[C@H](O)[C@H](n2cc(-c3cc(F)c(F)c(F)c3)nn2)[C@H]1OC)C1(O)CCN(C(=O)NC2CC2)CC1 [Example 2.49.226S.I., N-Cyclopropyl-4-((S)-2-(ethyl(methyl)amino)-1-(((2S,3R,4S,5R,6R)-5-hydroxy-6-(hydroxymethyl)-3-methoxy-4-(4-(3,4,5-trifluorophenyl)-1H-1,2,3-triazol-1-yl)tetrahydro-2H-pyran-2-yl)thio)-2-oxoethyl)-4-hydroxypiperidine-1-carboxamide]
100 | 70 | – | – | CCN(C)C(=O)C(S[C@@H]1O[C@H](CO)[C@H](O)[C@H](n2cc(-c3cc(F)c(F)c(F)c3)nn2)[C@H]1O)C1(O)CCN(C(=O)OC)CC1 (stereo partly drawn) [Example 2.50.203., Methyl 4-(1-(((2S,3R,4S,5R,6R)-3,5-dihydroxy-6-(hydroxymethyl)-4-(4-(3,4,5-trifluorophenyl)-1H-1,2,3-triazol-1-yl)tetrahydro-2H-pyran-2-yl)thio)-2-(ethyl(methyl)amino)-2-oxoethyl)-4-hydroxypiperidine-1-carboxylate]
10500 | 4450 | – | – | CCN(C)C(=O)[C@H](S[C@@H]1O[C@H](CO)[C@H](O)[C@H](n2cc(-c3cc(F)c(F)c(F)c3)nn2)[C@H]1O)C1(O)CCN(C(=O)OC)CC1 [Example 2.50.203R., (R)-Methyl 4-(1-(((2S,3R,4S,5R,6R)-3,5-dihydroxy-6-(hydroxymethyl)-4-(4-(3,4,5-trifluorophenyl)-1H-1,2,3-triazol-1-yl)tetrahydro-2H-pyran-2-yl)thio)-2-(ethyl(methyl)amino)-2-oxoethyl)-4-hydroxypiperidine-1-carboxylate]
60 | 40 | – | – | CCN(C)C(=O)[C@@H](S[C@@H]1O[C@H](CO)[C@H](O)[C@H](n2cc(-c3cc(F)c(F)c(F)c3)nn2)[C@H]1O)C1(O)CCN(C(=O)OC)CC1 [Example 2.50.203S., (S)-Methyl 4-(1-(((2S,3R,4S,5R,6R)-3,5-dihydroxy-6-(hydroxymethyl)-4-(4-(3,4,5-trifluorophenyl)-1H-1,2,3-triazol-1-yl)tetrahydro-2H-pyran-2-yl)thio)-2-(ethyl(methyl)amino)-2-oxoethyl)-4-hydroxypiperidine-1-carboxylate]
70 | 30 | – | – | CCN(C)C(=O)C(S[C@@H]1O[C@H](CO)[C@H](O)[C@H](n2cc(-c3cc(F)c(F)c(F)c3)nn2)[C@H]1O)C1(O)CCN(S(=O)(=O)C2CC2)CC1 (stereo partly drawn) [Example 2.51.203., 2-(1-(Cyclopropylsulfonyl)-4-hydroxypiperidin-4-yl)-2-(((2S,3R,4S,5R,6R)-3,5-dihydroxy-6-(hydroxymethyl)-4-(4-(3,4,5-trifluorophenyl)-1H-1,2,3-triazol-1-yl)tetrahydro-2H-pyran-2-yl)thio)-N-ethyl-N-methylacetamide]
7500 | 4960 | – | – | CCN(C)C(=O)[C@H](S[C@@H]1O[C@H](CO)[C@H](O)[C@H](n2cc(-c3cc(F)c(F)c(F)c3)nn2)[C@H]1O)C1(O)CCN(S(=O)(=O)C2CC2)CC1 [Example 2.51.203R., (R)-2-(1-(Cyclopropylsulfonyl)-4-hydroxypiperidin-4-yl)-2-(((2S,3R,4S,5R,6R)-3,5-dihydroxy-6-(hydroxymethyl)-4-(4-(3,4,5-trifluorophenyl)-1H-1,2,3-triazol-1-yl)tetrahydro-2H-pyran-2-yl)thio)-N-ethyl-N-methylacetamide]
30 | 20 | – | – | CCN(C)C(=O)[C@@H](S[C@@H]1O[C@H](CO)[C@H](O)[C@H](n2cc(-c3cc(F)c(F)c(F)c3)nn2)[C@H]1O)C1(O)CCN(S(=O)(=O)C2CC2)CC1 [Example 2.51.203S., (S)-2-(1-(Cyclopropylsulfonyl)-4-hydroxypiperidin-4-yl)-2-(((2S,3R,4S,5R,6R)-3,5-dihydroxy-6-(hydroxymethyl)-4-(4-(3,4,5-trifluorophenyl)-1H-1,2,3-triazol-1-yl)tetrahydro-2H-pyran-2-yl)thio)-N-ethyl-N-methylacetamide [1,3-di-deoxy-1-((2-(1-(cyclopropylsulfonyl)-4-hydroxypiperidin-4-yl)-N-ethyl-N-methylacetamide)-(S)-thio)-3-[4-(3,4,5-trifluorophenyl)-1H-1,2,3-triazol-1-yl]-β-D-galactopyranoside]]
35900 | – | 7800 | – | CCN(C)C(=O)C(S[C@@H]1O[C@H](CO)[C@H](O)[C@H](n2cc(-c3cc(F)c(F)c(F)c3)nn2)[C@H]1O)C(C)C (stereo partly drawn) [Example 2.53.203., 2-(((2S,3R,4S,5R,6R)-3,5-dihydroxy-6-(hydroxymethyl)-4-(4-(3,4,5-trifluorophenyl)-1H-1,2,3-triazol-1-yl)tetrahydro-2H-pyran-2-yl)thio)-N-ethyl-N,3-dimethylbutanamide, reference compound]
36000 | – | 6860 | – | CCN(C)C(=O)[C@@H](S[C@@H]1O[C@H](CO)[C@H](O)[C@H](n2cc(-c3cc(F)c(F)c(F)c3)nn2)[C@H]1O)C1CCOCC1 [Example 2.56.203S., (S)-2-(((2S,3R,4S,5R,6R)-3,5-dihydroxy-6-(hydroxymethyl)-4-(4-(3,4,5-trifluorophenyl)-1H-1,2,3-triazol-1-yl)tetrahydro-2H-pyran-2-yl)thio)-N-ethyl-N-methyl-2-(tetrahydro-2H-pyran-4-yl)acetamide, reference compound]
1020 | – | – | 170 | CCC(O)C(S[C@@H]1O[C@H](CO)[C@H](O)[C@H](n2cc(-c3cc(F)c(F)c(F)c3)nn2)[C@H]1O)C(=O)N(C)CC (stereo partly drawn) [Example 2.60.203., 2-(((2S,3R,4S,5R,6R)-3,5-Dihydroxy-6-(hydroxymethyl)-4-(4-(3,4,5-trifluorophenyl)-1H-1,2,3-triazol-1-yl)tetrahydro-2H-pyran-2-yl)thio)-N-ethyl-3-hydroxy-N-methylpentanamide]
3400 | – | – | 500 | CCC(O)C(S[C@@H]1O[C@H](CO)[C@H](O)[C@H](n2cc(-c3cc(F)c(F)c(F)c3)nn2)[C@H]1O)C(=O)N1CCC1 (stereo partly drawn) [Example 2.60.206., 1-(Azetidin-1-yl)-2-(((2S,3R,4S,5R,6R)-3,5-dihydroxy-6-(hydroxymethyl)-4-(4-(3,4,5-trifluorophenyl)-1H-1,2,3-triazol-1-yl)tetrahydro-2H-pyran-2-yl)thio)-3-hydroxypentan-1-one]
5940 | – | – | 710 | O=C(C(S[C@@H]1O[C@H](CO)[C@H](O)[C@H](n2cc(-c3cc(F)c(F)c(F)c3)nn2)[C@H]1O)C(O)Cc1ccccc1)N1CCC1 (stereo partly drawn) [Example 2.64.206., 1-(Azetidin-1-yl)-2-(((2S,3R,4S,5R,6R)-3,5-dihydroxy-6-(hydroxymethyl)-4-(4-(3,4,5-trifluorophenyl)-1H-1,2,3-triazol-1-yl)tetrahydro-2H-pyran-2-yl)thio)-3-hydroxy-4-phenylbutan-1-one]
340 | – | – | 110 | CN(CC1CC1)C(=O)C(S[C@@H]1O[C@H](CO)[C@H](O)[C@H](n2cc(-c3cc(F)c(F)c(F)c3)nn2)[C@H]1O)C(O)Cc1ccccc1 (stereo partly drawn) [Example 2.64.218., N-(Cyclopropylmethyl)-2-(((2S,3R,4S,5R,6R)-3,5-dihydroxy-6-(hydroxymethyl)-4-(4-(3,4,5-trifluorophenyl)-1H-1,2,3-triazol-1-yl)tetrahydro-2H-pyran-2-yl)thio)-3-hydroxy-N-methyl-4-phenylbutanamide]
3050 | – | – | 650 | CCN(C)C(=O)C(S[C@@H]1O[C@H](CO)[C@H](O)[C@H](n2cc(-c3cc(F)c(F)c(F)c3)nn2)[C@H]1O)C(O)c1ccn(C)n1 (stereo partly drawn) [Example 2.65.203., 2-(((2S,3R,4S,5R,6R)-3,5-dihydroxy-6-(hydroxymethyl)-4-(4-(3,4,5-trifluorophenyl)-1H-1,2,3-triazol-1-yl)tetrahydro-2H-pyran-2-yl)thio)-N-ethyl-3-hydroxy-N-methyl-3-(1-methyl-1H-pyrazol-3-yl)propanamide]
